Laboratory results: the NIST ThermoML archive (doi:10.1016/j.jct.2009.04.001)

Key:
[1] = xn = mol fraction of the nth substance listed; details: for surface tension liquid-gas: Pendant drop shape; for mass density: 101 kPa, Liquid, Vibrating tube method
[2] = for surface tension liquid-gas: Pendant drop shape; for mass density: Liquid, Vibrating tube method

Cc1ccc(C)cc1 [1,4-dimethylbenzene] + COCCOC
[1], x2 = 0
Details	mass density [kg/m3]	surface tension liquid-gas [mN/m]
298.15 K	856.95	28.11
303.15 K	852.61	27.59
308.15 K	848.27	27.07

Cc1ccccc1C [1,2-dimethylbenzene] + COCCOC
[1], x2 = 0
Details	mass density [kg/m3]	surface tension liquid-gas [mN/m]
298.15 K	875.09	29.86
303.15 K	870.86	29.18
308.15 K	866.64	28.61

Cc1ccccc1C [1,2-dimethylbenzene]
[2]
Details	surface tension liquid-gas [mN/m]
298.15 K	29.86
303.15 K	29.18
308.15 K	28.61

[2], 101.33 kPa
Details	mass density [kg/m3]
298.15 K	875.09
303.15 K	870.86
308.15 K	866.64

COCCOC [1,2-dimethoxyethane] + Cc1ccccc1C
[1]
Details	mass density [kg/m3]	surface tension liquid-gas [mN/m]
298.15 K, x1 = 0.0995	874.01	29.05
298.15 K, x1 = 0.1998	872.89	28.28
298.15 K, x1 = 0.3003	871.73	27.6
298.15 K, x1 = 0.4004	870.51	27.08
298.15 K, x1 = 0.4998	869.24	26.63
298.15 K, x1 = 0.6001	867.86	26.2
298.15 K, x1 = 0.7008	866.37	25.78
298.15 K, x1 = 0.7996	864.86	25.37
298.15 K, x1 = 0.8992	863.22	24.96
298.15 K, x1 = 0.95	862.34	24.64
298.15 K, x1 = 1	861.36	24.27
303.15 K, x1 = 0.0996	869.77	28.45
303.15 K, x1 = 0.1997	868.64	27.73
303.15 K, x1 = 0.3007	867.45	27.08
303.15 K, x1 = 0.3997	866.2	26.61
303.15 K, x1 = 0.5001	864.88	26.19
303.15 K, x1 = 0.6012	863.46	25.78
303.15 K, x1 = 0.7009	861.98	25.37
303.15 K, x1 = 0.7988	860.43	25
303.15 K, x1 = 0.8998	858.74	24.53
303.15 K, x1 = 0.9498	857.85	24.17
303.15 K, x1 = 1	856.8	23.73
308.15 K, x1 = 0.0998	865.45	27.92
308.15 K, x1 = 0.2005	864.2	27.23
308.15 K, x1 = 0.3003	862.9	26.61
308.15 K, x1 = 0.4009	861.51	26.17
308.15 K, x1 = 0.4991	860.07	25.77
308.15 K, x1 = 0.5995	858.53	25.39
308.15 K, x1 = 0.7013	856.88	24.99
308.15 K, x1 = 0.7991	855.2	24.58
308.15 K, x1 = 0.9008	853.35	24.07
308.15 K, x1 = 0.9503	852.39	23.66
308.15 K, x1 = 1	851.24	23.16

COCCOC [1,2-dimethoxyethane] + Cc1ccc(C)cc1
[1]
Details	mass density [kg/m3]	surface tension liquid-gas [mN/m]
298.15 K, x1 = 0.1002	857.45	27.63
298.15 K, x1 = 0.2004	857.95	27.17
298.15 K, x1 = 0.2996	858.44	26.75
298.15 K, x1 = 0.4001	858.93	26.32
298.15 K, x1 = 0.5009	859.41	25.91
298.15 K, x1 = 0.5997	859.85	25.54
298.15 K, x1 = 0.7018	860.28	25.18
298.15 K, x1 = 0.8005	860.66	24.87
298.15 K, x1 = 0.8998	861.02	24.57
298.15 K, x1 = 1	861.36	24.27
303.15 K, x1 = 0.0999	853.1	27.12
303.15 K, x1 = 0.2007	853.58	26.67
303.15 K, x1 = 0.3002	854.06	26.24
303.15 K, x1 = 0.3999	854.52	25.82
303.15 K, x1 = 0.4999	854.97	25.41
303.15 K, x1 = 0.6001	855.4	25.03
303.15 K, x1 = 0.7011	855.81	24.68
303.15 K, x1 = 0.8003	856.19	24.37
303.15 K, x1 = 0.9003	856.52	24.05
303.15 K, x1 = 1	856.79	23.73
308.15 K, x1 = 0.0996	848.66	26.61
308.15 K, x1 = 0.1998	849.05	26.16
308.15 K, x1 = 0.2997	849.41	25.73
308.15 K, x1 = 0.4001	849.76	25.3
308.15 K, x1 = 0.4995	850.09	24.89
308.15 K, x1 = 0.6004	850.4	24.51
308.15 K, x1 = 0.6993	850.67	24.17
308.15 K, x1 = 0.7993	850.93	23.84
308.15 K, x1 = 0.8998	851.14	23.5
308.15 K, x1 = 1	851.24	23.16

Cc1ccc(C)cc1 [1,4-dimethylbenzene]
[2]
Details	surface tension liquid-gas [mN/m]
298.15 K	28.11
303.15 K	27.59
308.15 K	27.07

[2], 101.33 kPa
Details	mass density [kg/m3]
298.15 K	856.95
303.15 K	852.61
308.15 K	848.27

COCCOC [1,2-dimethoxyethane]
[2]
Details	surface tension liquid-gas [mN/m]
298.15 K	24.27
303.15 K	23.73
308.15 K	23.16

mass density [kg/m3], [2]
Details	298.15 K	303.15 K	308.15 K
101 kPa	–	856.8	–
101.33 kPa	861.36	856.79	851.24
